Experimental data published in PubChem BioAssay (NCI).
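Growth conditions: 96-well plates. Treatment: test compound, 48 hours, 5 concentrations. Analysis: linear interpolation between bracketing concentrations; unreached endpoints set to highest concentration. Abbreviation: GI50, concentration required for 50% inhibition of growth. TGI denotes the concentration required for complete inhibition of growth.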

Assays:
Experiment in all cases: NCI tumour cell line growth inhibition, 48 h
HCC-2998 colon = test system: HCC-2998 colon
A549 NSCLC = test system: A549 NSCLC
K-562 leukemia = test system: K-562 leukemia
TK-10 renal = test system: TK-10 renal
COLO 205 colon = test system: COLO 205 colon
SF-539 CNS = test system: SF-539 CNS
SK-OV-3 ovarian = test system: SK-OV-3 ovarian
SR leukemia = test system: SR leukemia
OVCAR-4 ovarian = test system: OVCAR-4 ovarian
BT-549 breast = test system: BT-549 breast
MDA-MB-435 = test system: MDA-MB-435
786-0 renal = test system: 786-0 renal
ACHN renal = test system: ACHN renal
U251 CNS = test system: U251 CNS
PC-3 prostate = test system: PC-3 prostate
NCI-H522 lung = test system: NCI-H522 lung
RPMI-8226 leukemia = test system: RPMI-8226 leukemia
CAKI-1 renal = test system: CAKI-1 renal
SK-MEL-2 melanoma = test system: SK-MEL-2 melanoma
SF-295 CNS = test system: SF-295 CNS
MDA-MB-231 breast = test system: MDA-MB-231 breast
UACC-62 melanoma = test system: UACC-62 melanoma
KM12 colon = test system: KM12 colon
HS 578T breast = test system: HS 578T breast
SK-MEL-5 melanoma = test system: SK-MEL-5 melanoma
NCI-H460 lung = test system: NCI-H460 lung
MOLT-4 leukemia = test system: MOLT-4 leukemia
A498 renal = test system: A498 renal
MCF7 breast = test system: MCF7 breast
IGROV1 ovarian = test system: IGROV1 ovarian
HCT-116 colon = test system: HCT-116 colon
OVCAR-3 ovarian = test system: OVCAR-3 ovarian
SW-620 colon = test system: SW-620 colon
HCT-15 colon = test system: HCT-15 colon
NCI/ADR-RES ovarian = test system: NCI/ADR-RES ovarian
UACC-257 melanoma = test system: UACC-257 melanoma
HOP-62 NSCLC = test system: HOP-62 NSCLC
EKVX NSCLC = test system: EKVX NSCLC
SF-268 CNS = test system: SF-268 CNS
HOP-92 NSCLC = test system: HOP-92 NSCLC
OVCAR-5 ovarian = test system: OVCAR-5 ovarian
HT29 colon = test system: HT29 colon
UO-31 renal = test system: UO-31 renal
MALME-3M melanoma = test system: MALME-3M melanoma
M14 melanoma = test system: M14 melanoma
NCI-H23 lung = test system: NCI-H23 lung
SNB-19 CNS = test system: SNB-19 CNS
OVCAR-8 ovarian = test system: OVCAR-8 ovarian
SNB-75 CNS = test system: SNB-75 CNS
SK-MEL-28 melanoma = test system: SK-MEL-28 melanoma
NCI-H226 lung = test system: NCI-H226 lung
SN12C renal = test system: SN12C renal
CCRF-CEM leukemia = test system: CCRF-CEM leukemia
DU-145 prostate = test system: DU-145 prostate
HL-60(TB) leukemia = test system: HL-60(TB) leukemia
RXF 393 renal = test system: RXF 393 renal
T-47D breast = test system: T-47D breast
LOX IMVI melanoma = test system: LOX IMVI melanoma

CC(=O)ON1CCCC(P(=O)(OCCSC(=O)C(C)(C)C)OCCSC(=O)C(C)(C)C)C1=O (stereo unspecified)
GI50 (HCC-2998 colon): 1.42 µM
TGI (HCC-2998 colon): 12.4 µM
GI50 (A549 NSCLC): 1.52 µM
TGI (A549 NSCLC): > 100 µM
GI50 (K-562 leukemia): 0.674 µM
TGI (K-562 leukemia): > 100 µM
GI50 (TK-10 renal): 3.57 µM
TGI (TK-10 renal): 93.3 µM
GI50 (COLO 205 colon): 3.88 µM
TGI (COLO 205 colon): > 100 µM
GI50 (SF-539 CNS): 3.96 µM
TGI (SF-539 CNS): 27.4 µM
GI50 (SK-OV-3 ovarian): 2.86 µM
TGI (SK-OV-3 ovarian): 88 µM
GI50 (SR leukemia): 0.571 µM
TGI (SR leukemia): 64.2 µM
GI50 (OVCAR-4 ovarian): 1.58 µM
TGI (OVCAR-4 ovarian): 26.4 µM
GI50 (BT-549 breast): 0.979 µM
TGI (BT-549 breast): 7.24 µM
GI50 (MDA-MB-435): 3.02 µM
TGI (MDA-MB-435): 88.6 µM
GI50 (786-0 renal): 1.41 µM
TGI (786-0 renal): 90.4 µM
GI50 (ACHN renal): 1.75 µM
TGI (ACHN renal): 30.4 µM
GI50 (U251 CNS): 1.02 µM
TGI (U251 CNS): 64.3 µM
GI50 (PC-3 prostate): 3.51 µM
TGI (PC-3 prostate): > 100 µM
GI50 (NCI-H522 lung): 0.659 µM
TGI (NCI-H522 lung): 20.9 µM
GI50 (RPMI-8226 leukemia): 1.45 µM
TGI (RPMI-8226 leukemia): 11.3 µM
GI50 (CAKI-1 renal): 2.44 µM
TGI (CAKI-1 renal): > 100 µM
GI50 (SK-MEL-2 melanoma): 4.47 µM
TGI (SK-MEL-2 melanoma): 40 µM
GI50 (SF-295 CNS): 12.7 µM
TGI (SF-295 CNS): > 100 µM
GI50 (MDA-MB-231 breast): 1.34 µM
TGI (MDA-MB-231 breast): 87.8 µM
GI50 (UACC-62 melanoma): 1.57 µM
TGI (UACC-62 melanoma): 8.58 µM
GI50 (KM12 colon): 1.21 µM
TGI (KM12 colon): 13.8 µM
GI50 (HS 578T breast): 1.53 µM
TGI (HS 578T breast): 8.94 µM
GI50 (SK-MEL-5 melanoma): 1.21 µM
TGI (SK-MEL-5 melanoma): 4.15 µM
GI50 (NCI-H460 lung): 1.28 µM
TGI (NCI-H460 lung): 19.9 µM
GI50 (MOLT-4 leukemia): 0.854 µM
TGI (MOLT-4 leukemia): 11.5 µM
GI50 (A498 renal): 0.304 µM
TGI (A498 renal): 3.49 µM
GI50 (MCF7 breast): 2.01 µM
TGI (MCF7 breast): 47.5 µM
GI50 (IGROV1 ovarian): 0.808 µM
TGI (IGROV1 ovarian): 6.27 µM
GI50 (HCT-116 colon): 0.613 µM
TGI (HCT-116 colon): 12.7 µM
GI50 (OVCAR-3 ovarian): 1.19 µM
TGI (OVCAR-3 ovarian): 20.5 µM
GI50 (SW-620 colon): 1.59 µM
TGI (SW-620 colon): > 100 µM
GI50 (HCT-15 colon): 0.973 µM
TGI (HCT-15 colon): 76.1 µM
GI50 (NCI/ADR-RES ovarian): 1.35 µM
TGI (NCI/ADR-RES ovarian): 12.4 µM
GI50 (UACC-257 melanoma): 6.9 µM
TGI (UACC-257 melanoma): 81.1 µM
GI50 (HOP-62 NSCLC): 3.21 µM
TGI (HOP-62 NSCLC): > 100 µM
GI50 (EKVX NSCLC): 2.1 µM
TGI (EKVX NSCLC): 49.6 µM
GI50 (SF-268 CNS): 2.29 µM
TGI (SF-268 CNS): 60.9 µM
GI50 (HOP-92 NSCLC): 0.87 µM
TGI (HOP-92 NSCLC): 31.2 µM
GI50 (OVCAR-5 ovarian): 6.46 µM
TGI (OVCAR-5 ovarian): > 100 µM
GI50 (HT29 colon): 1.28 µM
TGI (HT29 colon): > 100 µM
GI50 (UO-31 renal): 0.413 µM
TGI (UO-31 renal): 11.3 µM
GI50 (MALME-3M melanoma): 0.537 µM
TGI (MALME-3M melanoma): 9.05 µM
GI50 (M14 melanoma): 2.11 µM
TGI (M14 melanoma): 24.9 µM
GI50 (NCI-H23 lung): 3.3 µM
TGI (NCI-H23 lung): 28.5 µM
GI50 (SNB-19 CNS): 1.76 µM
TGI (SNB-19 CNS): 21.9 µM
GI50 (OVCAR-8 ovarian): 0.691 µM
TGI (OVCAR-8 ovarian): > 100 µM
GI50 (SNB-75 CNS): 1.4 µM
TGI (SNB-75 CNS): 23.3 µM
GI50 (SK-MEL-28 melanoma): 1.56 µM
TGI (SK-MEL-28 melanoma): 15.5 µM
GI50 (NCI-H226 lung): 2.27 µM
TGI (NCI-H226 lung): 26.4 µM
GI50 (SN12C renal): 0.36 µM
TGI (SN12C renal): 15 µM
GI50 (CCRF-CEM leukemia): 0.283 µM
TGI (CCRF-CEM leukemia): 67.4 µM
GI50 (DU-145 prostate): 3.08 µM
TGI (DU-145 prostate): > 100 µM
GI50 (HL-60(TB) leukemia): 1.68 µM
TGI (HL-60(TB) leukemia): 11.3 µM
GI50 (RXF 393 renal): 0.764 µM
TGI (RXF 393 renal): 7.02 µM
GI50 (T-47D breast): 2.08 µM
TGI (T-47D breast): > 100 µM
GI50 (LOX IMVI melanoma): 1.22 µM
TGI (LOX IMVI melanoma): 95.5 µM
